Structures are written as SMILES.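 Five compound concentrations were applied to cells in 96-well plates for 48 hours; endpoints were derived by simple linear interpolation of the resulting dose-response curve. GI50 marks 50% less growth.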 Activity calls are given as the source filed them. No stated cut-off is given here; in the data, active = GI50 up to about 1.1 µM and inactive = higher.

Some test systems named below: NCI-H226; SW-620; SR; CCRF-CEM; SF-295; SF-268; DMS-273; SK-MEL-5; DMS-114; KM-20L2; MOLT-4; OVCAR-4; HCT-116; KM12; UACC-257; TK-10; SNB-78; SF-539.
Holding throughout (experiment): inhibition of tumour cell growth, NCI panel, 48 h

Turning to `COc1ccc(C2=NN(c3ccccc3)C[N+](c3ccc(C)cc3)=N2)cc1`, the GI50 with NCI-H226 was 55.3 µM (inactive); in the assay on SW-620, 25.6 µM (inactive); in the assay on SR, 34 µM (inactive); in the assay on CCRF-CEM, 19.3 µM (inactive); in the assay with SF-295, > 100 µM (inactive); in the assay with SF-268, 70.6 µM (inactive). Besides, the GI50 is > 10 µM (inactive) in the assay on DMS-273; > 10 µM (inactive) with SK-MEL-5; 24.7 µM (inactive) with DMS-114; 59 µM (inactive) in the assay with KM-20L2; 19.8 µM (inactive) in the assay with MOLT-4; 13.2 µM (inactive) in the assay on OVCAR-4. Also, the GI50 was 35.1 µM (inactive) with HCT-116; > 10 µM (inactive) in the assay on KM12; > 100 µM (inactive) in the assay on UACC-257; > 100 µM (inactive) with TK-10; 27.9 µM (inactive) in the assay on SNB-78.
In the case of `COC1C(OC(=O)c2ccc(C)[nH]2)C(O)C(Oc2ccc3c(O)c(NC(=O)c4c[nH]c(C(=O)Nc5c(O)c6ccc(OC7OC(C)(C)C(OC)C(OC(=O)c8ccc(C)[nH]8)C7O)c(C)c6oc5=O)c4C)c(=O)oc3c2C)OC1(C)C` (configuration not stated), the GI50 in the assay on NCI-H226 is 1.96 µM (inactive); in the assay with SW-620 it was 4.34 µM (inactive); in the assay with CCRF-CEM, 2.34 µM (inactive); with SF-295, 4.01 µM (inactive); in the assay with SF-268, 0.67 µM (active); with DMS-273, 2.86 µM (inactive). For the same compound, the GI50 with SK-MEL-5 is 2.61 µM (inactive); in the assay on DMS-114 it was 2.02 µM (inactive); in the assay with KM-20L2, 2.4 µM (inactive); with MOLT-4, 0.857 µM (active); with OVCAR-4, 2.05 µM (inactive); in the assay with KM12, 1.32 µM (inactive). Besides, the results for the GI50 with UACC-257, with TK-10 and with SNB-78 were 3.95 µM (inactive), 4.86 µM (inactive) and 1.56 µM (inactive), respectively.
Take `O=C(CCN1CCN(c2ccccc2)CC1)N1CCc2c([nH]c3ccccc23)C1c1cccnc1` (configuration not stated): the GI50 in the assay with NCI-H226 is 25.9 µM (inactive); in the assay on SW-620, 17.2 µM (inactive); with SR, 24.7 µM (inactive); in the assay on CCRF-CEM, 20.6 µM (inactive); in the assay on SF-295, > 10 µM (inactive); with DMS-273, 17.5 µM (inactive). For the same compound, the GI50 with SK-MEL-5 is 14.4 µM (inactive); in the assay with DMS-114, 13.2 µM (inactive); in the assay with KM-20L2, 15.9 µM (inactive); in the assay with MOLT-4, 12 µM (inactive); in the assay with OVCAR-4, 13.6 µM (inactive); with HCT-116, 14.9 µM (inactive). Also, the GI50 was 18.7 µM (inactive) with SF-539; 18 µM (inactive) in the assay with KM12; 15.9 µM (inactive) in the assay with UACC-257; 5.81 µM (inactive) in the assay on TK-10; 16.1 µM (inactive) with SNB-78.
As for `CCc1ccc(Nc2ccc([N+](=O)[O-])cc2[N+](=O)[O-])cc1`, the GI50 in the assay with NCI-H226 is 34.2 µM (inactive); in the assay with SW-620, > 100 µM (inactive); in the assay on CCRF-CEM, 35.2 µM (inactive); with SF-295 it was 89.7 µM (inactive); in the assay with DMS-273, 96.6 µM (inactive); in the assay with SK-MEL-5, 38.6 µM (inactive). The GI50 in the assay with DMS-114 is 29.4 µM (inactive); in the assay on KM-20L2, 69.3 µM (inactive); in the assay on MOLT-4, 19.1 µM (inactive); in the assay on OVCAR-4, 34.5 µM (inactive); with HCT-116 it was 36.7 µM (inactive); with SF-539 it was > 100 µM (inactive). In addition, the GI50 was 52.5 µM (inactive) with KM12, 67.8 µM (inactive) in the assay with UACC-257, 73.8 µM (inactive) in the assay with TK-10 and 87.3 µM (inactive) in the assay on SNB-78.
Consider `CC(=O)O[C@H]1CCC2[C@@H]3CCC4c5nonc5CC[C@]4(C)C3CC[C@@]21C` (some centres not stated), for which the GI50 in the assay on NCI-H226, with SW-620, in the assay on CCRF-CEM, in the assay on SF-295, in the assay on SF-268 and in the assay on DMS-273 was > 10 µM (inactive) throughout. In addition, the GI50 in the assay with SK-MEL-5, in the assay on DMS-114, with KM-20L2, with MOLT-4, in the assay with OVCAR-4 and with HCT-116 was > 10 µM (inactive) in each case. The GI50 in the assay on SF-539, in the assay on KM12, in the assay on UACC-257, in the assay with TK-10 and with SNB-78 was > 10 µM (inactive) throughout.
For the compound `C[C@]12CC(C#N)C(=O)C(O)=C1CC[C@@H]1C2CC[C@@]2(C)C1CC[C@@H]2O` (some centres not stated), the GI50 in the assay on NCI-H226 was 27.6 µM (inactive); in the assay on SW-620 it was > 100 µM (inactive); in the assay with CCRF-CEM, 45.1 µM (inactive); in the assay with SF-295, > 100 µM (inactive); with SF-268 it was 41.7 µM (inactive); in the assay with DMS-273 it was 17.3 µM (inactive). Further, the GI50 in the assay with SK-MEL-5 is 26.3 µM (inactive); in the assay with DMS-114, 49 µM (inactive); in the assay on KM-20L2 it was 95.5 µM (inactive); in the assay with MOLT-4, 40.7 µM (inactive); with OVCAR-4 it was 48.5 µM (inactive); in the assay on HCT-116, 41.1 µM (inactive). In addition, the GI50 with SF-539 was 46.1 µM (inactive); in the assay with KM12, > 100 µM (inactive); in the assay on UACC-257 it was 71.1 µM (inactive); in the assay with TK-10 it was 27.1 µM (inactive); with SNB-78, 65.3 µM (inactive).
With `NC(=O)N/N=C(/c1nc2ccc([N+](=O)[O-])cc2nc1O)C(O)c1ccco1` (configuration not stated), the GI50 was > 100 µM (inactive) in the assay on NCI-H226; 44.6 µM (inactive) in the assay on SW-620; 57.1 µM (inactive) with SR; 34.7 µM (inactive) in the assay with CCRF-CEM; 80.7 µM (inactive) in the assay on SF-295; 63.4 µM (inactive) in the assay with SF-268. For the same compound, the GI50 is 20.5 µM (inactive) in the assay with DMS-273; 30 µM (inactive) with SK-MEL-5; 28.8 µM (inactive) in the assay on DMS-114; 10.4 µM (inactive) in the assay on KM-20L2; 94.6 µM (inactive) in the assay with MOLT-4; > 100 µM (inactive) with OVCAR-4. The GI50 is > 100 µM (inactive) in the assay with HCT-116; 15.8 µM (inactive) in the assay on SF-539; > 100 µM (inactive) in the assay on UACC-257; > 100 µM (inactive) with TK-10; > 100 µM (inactive) in the assay on SNB-78.
As for `O=C1c2ccccc2C(=O)C2C3c4ccccc4C(c4ccccc43)C12` (configuration not stated), the GI50 was 77.3 µM (inactive) with NCI-H226; > 100 µM (inactive) with SW-620; 14.4 µM (inactive) in the assay with SR; 10.7 µM (inactive) in the assay with CCRF-CEM; 12.8 µM (inactive) in the assay on SF-295; 13.4 µM (inactive) in the assay on SF-268. For the same compound, the GI50 in the assay on DMS-273 is 19.1 µM (inactive); in the assay with DMS-114, 16.8 µM (inactive); in the assay on KM-20L2, > 100 µM (inactive); in the assay with MOLT-4, 12.7 µM (inactive); with HCT-116, 28.8 µM (inactive); in the assay with SF-539 it was 12.5 µM (inactive). The GI50 with KM12 is 28.2 µM (inactive); in the assay on UACC-257 it was 23.7 µM (inactive); in the assay on TK-10, 24.5 µM (inactive); with SNB-78, 18.7 µM (inactive).
On to `CCOc1ccc(/C=C2/C(=O)N=C(N)N=C2N)cc1OCC`, for which the GI50 in the assay on NCI-H226, with SW-620, with SR, in the assay with CCRF-CEM, with SF-295 and in the assay on DMS-273 was > 100 µM (inactive) in each case. For the same compound, the GI50 with SK-MEL-5, with DMS-114, in the assay on KM-20L2, with MOLT-4, in the assay on OVCAR-4 and with HCT-116 was > 100 µM (inactive) in each case. Also, the GI50 in the assay on KM12, with UACC-257, in the assay on TK-10 and with SNB-78 was > 100 µM (inactive) throughout.
With `CNC(SC)=C1C(=O)OC(C)(C)OC1=O`, the GI50 is > 100 µM (inactive) in the assay with NCI-H226; 20 µM (inactive) in the assay with SW-620; > 100 µM (inactive) in the assay with SR; > 100 µM (inactive) in the assay with CCRF-CEM; > 100 µM (inactive) in the assay with SF-295; > 100 µM (inactive) in the assay on SF-268. Further, the GI50 in the assay with DMS-273 was 0.499 µM (active); in the assay with SK-MEL-5, > 100 µM (inactive); in the assay with DMS-114, 34.8 µM (inactive); in the assay on KM-20L2, > 100 µM (inactive); in the assay on MOLT-4, > 100 µM (inactive); in the assay on HCT-116, 58.2 µM (inactive). Further, the GI50 in the assay on KM12 is > 100 µM (inactive); in the assay with UACC-257, > 100 µM (inactive); in the assay with TK-10, > 100 µM (inactive); in the assay with SNB-78 it was 36.4 µM (inactive).
With `COC(=O)c1cc2cc(OC)c(OC)cc2cc(C(=O)OC)c1=O`, the GI50 in the assay on SW-620 is 35.3 µM (inactive); in the assay on CCRF-CEM, > 100 µM (inactive); in the assay on SF-295, > 100 µM (inactive); in the assay on SF-268, > 100 µM (inactive); with DMS-273 it was > 100 µM (inactive); with SK-MEL-5 it was > 100 µM (inactive). For the same compound, the GI50 was 29.6 µM (inactive) in the assay with DMS-114; > 100 µM (inactive) in the assay with KM-20L2; > 100 µM (inactive) in the assay on MOLT-4; > 100 µM (inactive) in the assay on OVCAR-4; > 100 µM (inactive) in the assay on HCT-116; > 100 µM (inactive) with SF-539. Also, the GI50 in the assay with KM12, in the assay on UACC-257, with TK-10 and with SNB-78 was > 100 µM (inactive) each time.
For `c1cncc(C2c3[nH]c4ccccc4c3CCN2CCN2CCCCC2)c1` (configuration not stated), the GI50 was > 100 µM (inactive) with SW-620; > 100 µM (inactive) in the assay with SR; 56.4 µM (inactive) in the assay with CCRF-CEM; > 100 µM (inactive) with SF-295; > 100 µM (inactive) in the assay with SF-268; > 100 µM (inactive) in the assay with DMS-273. For the same compound, the GI50 in the assay on SK-MEL-5, in the assay with DMS-114, in the assay with KM-20L2, in the assay on MOLT-4, in the assay on OVCAR-4 and in the assay with HCT-116 was > 100 µM (inactive) in each case. Moreover, the GI50 was > 100 µM (inactive) in the assay with SF-539; > 100 µM (inactive) in the assay with KM12; 32.9 µM (inactive) in the assay on UACC-257; > 100 µM (inactive) in the assay with TK-10; > 100 µM (inactive) with SNB-78.

The values are drawn from ChEMBL document CHEMBL1201862, “PubChem BioAssay data set” (2004).
